Measurements as given in the supplement of paper PMC10307832.

Tests used:
Test in all cases: relative viability (nuclei count vs DMSO), 5 days (fraction); higher = more cells survive
GW-2580 + Navitoclax = compound: COC1=CC=C(C=C1)COC2=C(C=C(C=C2)CC3=CN=C(N=C3N)N)OC [GW-2580] + CC1(C)CCC(c2ccc(Cl)cc2)=C(CN2CCN(c3ccc(C(=O)NS(=O)(=O)c4ccc(N[C@H](CCN5CCOCC5)CSc5ccccc5)c(S(=O)(=O)C(F)(F)F)c4)cc3)CC2)C1 [Navitoclax] (partner 0.5 µM)
Outline: (§1)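 Each reported value is a median over duplicate plates. It expresses relative viability: treated-well nuclei count divided by vehicle-well nuclei count. Lung cancer cell lines in 1536-well plates were dosed by pin tool a day after seeding, alone with one drug or with a fixed anchor-drug dose plus five library-drug doses (not always all listed) in √10 steps, and nuclei were counted after 5 days.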

GW-2580 + AZD7762 = compound: COC1=CC=C(C=C1)COC2=C(C=C(C=C2)CC3=CN=C(N=C3N)N)OC [GW-2580] + NC(=O)Nc1cc(-c2cccc(F)c2)sc1C(=O)N[C@H]1CCCNC1 [AZD7762] (partner 0.2 µM)
Outline: as §1

GW-2580 + OSI-027 = compound: COC1=CC=C(C=C1)COC2=C(C=C(C=C2)CC3=CN=C(N=C3N)N)OC [GW-2580] + COc1cccc2cc(-c3nc([C@H]4CC[C@H](C(=O)O)CC4)n4ncnc(N)c34)[nH]c12 [OSI-027] (partner 0.5 µM)
Outline: as §1

Fedratinib + Foretinib = compound: Cc1cnc(Nc2ccc(OCCN3CCCC3)cc2)nc1Nc1cccc(S(=O)(=O)NC(C)(C)C)c1 [Fedratinib] + COc1cc2c(Oc3ccc(NC(=O)C4(C(=O)Nc5ccc(F)cc5)CC4)cc3F)ccnc2cc1OCCCN1CCOCC1 [Foretinib] (partner 0.25 µM)
Outline: as §1

Cell Line	relative viability (GW-2580 + Navitoclax; first compound 0.08 µM)	relative viability (GW-2580 + Navitoclax; first compound 0.8 µM)	relative viability (GW-2580 + Navitoclax; first compound 2.53 µM)	relative viability (GW-2580 + Navitoclax; first compound 8 µM)	relative viability (GW-2580 + AZD7762; first compound 0.08 µM)	relative viability (GW-2580 + AZD7762; first compound 0.8 µM)	relative viability (GW-2580 + AZD7762; first compound 2.53 µM)	relative viability (GW-2580 + AZD7762; first compound 8 µM)	relative viability (GW-2580 + OSI-027; first compound 0.08 µM)	relative viability (GW-2580 + OSI-027; first compound 0.8 µM)	relative viability (GW-2580 + OSI-027; first compound 2.53 µM)	relative viability (GW-2580 + OSI-027; first compound 8 µM)	relative viability (Fedratinib + Foretinib; first compound 0.1 µM)	relative viability (Fedratinib + Foretinib; first compound 0.3162 µM)	relative viability (Fedratinib + Foretinib; first compound 1 µM)
NCI-H2085	1.09	1.11	1.03	1.07	1.14	1.14	0.989	0.919	0.985	0.86	0.653	0.886	0.883	0.861	0.909
NCI-H1793	0.433	0.266	0.833	0.415	0.587	0.382	0.266	0.323	0.365	0.323	0.306	0.254	0.506	0.765	0.45
LC-2-ad	0.544	0.52	0.357	0.498	0.866	0.948	0.826	0.873	0.88	0.867	0.87	0.78	1.02	1.01	0.784
NCI-H1355	0.984	1.08	0.827	0.944	0.807	0.767	0.566	0.676	0.378	0.466	0.37	0.35	1.06	0.973	0.913
H3255	0.5	0.633	0.4	0.452	0.876	1.22	0.817	0.758	0.577	0.606	0.622	0.595	0.82	0.766	0.877
NCI-H1993	0.932	1.14	–	0.948	0.851	0.772	0.687	0.868	0.656	0.559	0.55	0.561	0.763	0.818	0.808
NCI-H1734	1.04	0.935	0.857	0.76	0.543	0.558	0.481	0.568	0.617	0.65	0.582	0.537	0.665	0.921	0.786
HOP-62	1.15	1.05	0.984	1.26	0.664	0.74	0.571	0.424	0.905	0.801	0.847	0.985	1.1	0.982	0.959
LOU-NH91	0.683	0.731	0.618	0.752	0.862	0.677	0.743	0.794	0.706	0.808	0.678	0.721	0.917	0.956	0.875
ChaGo-K-1	1.04	1.34	0.926	1.01	0.933	0.887	0.839	0.878	0.625	0.548	0.532	0.575	0.811	0.923	0.899
PC-14	1.07	1.05	0.905	1.05	0.47	0.484	0.271	0.396	1	1.08	0.671	0.817	0.975	1.08	1
NCI-H1437	1.16	1.15	0.928	0.879	1.11	1.09	1.04	0.995	0.943	0.864	0.889	0.85	1.25	1.25	1.33
NCI-H460	1.46	1.37	0.941	1.15	0.595	0.714	0.383	0.492	0.996	0.864	0.679	0.656	0.793	1.05	0.997
NCI-H1666	0.946	1.1	0.856	0.69	0.824	1.1	0.852	0.826	0.941	1.12	0.911	0.77	0.927	0.991	0.962
NCI-H1651	1.04	1.15	0.95	1.18	0.452	0.53	0.535	0.455	0.804	0.753	0.748	0.896	0.813	0.73	0.761
NCI-H1755	1.04	1.04	0.894	0.831	0.483	0.486	0.448	0.405	0.757	0.676	0.686	0.703	0.937	0.977	0.874
HARA	1.15	1.18	1.28	0.896	0.302	0.252	0.294	0.221	0.504	0.452	0.491	0.395	0.948	0.493	0.782
NCI-H596	1.05	0.982	0.94	0.9	1.1	1.18	1.19	1.14	0.823	0.733	0.76	0.808	0.881	0.78	0.762
NCI-H23	0.77	0.75	0.774	0.87	0.264	0.21	0.243	0.179	0.561	0.644	0.599	0.347	0.945	0.767	0.822
LCLC-97TM1	0.443	–	0.369	0.321	0.2	0.285	0.281	0.212	0.556	0.614	0.624	0.426	1.03	0.913	0.935
EPLC-272H	1.18	1.08	1.11	1.11	0.221	0.315	–	0.297	0.284	0.308	–	0.273	0.558	0.684	0.472
NCI-H1915	0.858	0.898	0.778	0.837	0.772	0.708	0.692	0.743	0.638	0.649	0.626	0.598	1.09	1.08	1.05
NCI-H2405	0.888	0.742	0.928	0.66	0.793	0.712	0.703	0.581	0.643	0.668	0.609	0.618	1.03	1.02	1.01
NCI-H322M	1.07	1.31	1.11	1.22	0.508	0.706	0.598	0.531	0.528	0.562	0.634	0.538	0.946	0.95	0.596
NCI-H2170	0.5	0.68	0.467	0.657	0.982	0.864	0.723	0.837	0.757	0.745	0.735	0.748	1.02	0.996	1.02
NCI-H1395	1.08	1.06	1.13	1.11	0.421	0.377	0.422	0.416	0.64	0.689	0.661	0.684	0.926	0.956	0.959
NCI-H838	1.09	1.2	1.03	1.36	0.976	0.998	0.92	0.986	0.413	0.428	0.472	0.431	1.05	1.06	0.989
CAL-12T	1.27	–	1.22	1.34	0.639	0.737	0.602	0.594	0.609	0.853	0.526	0.699	0.934	0.992	1.08
